Measurements from patent US6455470B1, “Herbicidal compositions” (priority 1994, dated 2002).
Where “and” joins values, the source holds several entries; their conditions need not be identical. Equal entries are not always repeated.

How the values were obtained:
Assay type in all cases: in vivo
[1] = tested on: Alopecurus myosuroides (black grass); assay: Growth room pot test, post-emergence phytotoxicity on ALOMY
Description: (§1) A simple mathematical method to test the additivity of a pesticide combination is based on the equation: [formula]
(§2) in which X and Y represent the percentage-of-inhibition of growth by toxicant A and B, respectively. E is the expected percentage-of-inhibition of growth by the mixture A and B. In order to show synergism, the actual efficacy should be higher than E.
(§3) The compounds were tested alone and in admixture with a co-herbicide, which was also tested alone, against the following weeds:
(§4) In the test procedure three replicate pots per treatment were randomly arranged through a growth room. The plants were treated about three weeks after planting and then submitted to a photoperiod of 14 hours per day; the temperature was 15 degrees Centigrade during the day and 9 degrees at night. All applications of test formulations were performed using a MARDRIVE sprayer, simulating as far as possible field conditions. The pressure was controlled at 2 bar and the water volume was 300 l/ha. The weed plants were at a true leaf stage between 0 to 6 leaves.
(§5) The results in the tables and figures are presented as average values of three replicates.

Avena fatua (wild oats) = assay: Growth room pot test, post-emergence phytotoxicity on AVEFA
Description: as §1, §2, §3, §4, §5

[2] = tested on: Stellaria media (common chickweed); assay: Growth room pot test, post-emergence phytotoxicity on STEME
Description: as §1, §2, §3, §4, §5

[3] = tested on: Lamium purpureum (red dead nettle); assay: Growth room pot test, post-emergence phytotoxicity on LAMPU
Description: as §1, §2
(§6) are formulated as suspension concentrates (SC) containing about 42% by weight of active ingredient.
as §3, §4
(§7) Assessment of phytotoxicity was made by comparison with untreated control pots on an arbitrary scale from 0 to 100%, where 0 represents no visible effect and 100 represents a kill of all plants. The results in the tables and figures are presented as average values of three replicates.

[4] = tested on: Veronica persica (common field speedwell); assay: Growth room pot test, post-emergence phytotoxicity on VERPE
Description: as §1, §2, §6, §3, §4, §7

[5] = tested on: Matricaria chamomilla (mayweed); assay: Growth room pot test, post-emergence phytotoxicity on MATCH
Description: as §1, §2, §3, §4, §5

[6] = tested on: Galium aparine (bedstraw cleavers); assay: Growth room pot test, post-emergence phytotoxicity on GALAP
Description: as §1, §2, §6, §3, §4, §7

weeds = assay: Growth room pot test, overall synergy on the weeds; conditions: mixtures of sulfonylurea A or B with co-herbicide
Text: It is generally admitted that, in case of synergism, the effectiveness of the mixture cannot be computed from that of the individual ingredients. Synergism is generally defined as the simultaneous action of two or more compounds in which the total response of an organism to the pesticide combination is greater that the sum of the individual components.
as §1, §2, §3
as §4, with “leaves. […]” for “leaves.”

Compound: Cn1c(-c2ccccc2)cc(-c2ccccc2)[n+]1C [Difenzoquat, difenzoquat]
- Phytotoxicity of herbicide alone ([1]; 600 g/ha): 5%
- Phytotoxicity of herbicide alone (Avena fatua (wild oats); 600 g/ha): 60%
- Phytotoxicity of herbicide alone ([2]; 400 g/ha): 0%
- Phytotoxicity of herbicide alone ([3]; 600 g/ha): 5%
- Phytotoxicity of herbicide alone ([4]; 200 g/ha): 0%

Compound: Nc1c(Cl)c(F)nc(OCC(=O)O)c1Cl [Fluroxypyr, fluroxypyr]
- Phytotoxicity of herbicide alone ([1]; 100 g/ha): 0%
- Phytotoxicity of herbicide alone (Avena fatua (wild oats); 100 g/ha): 0%
- Phytotoxicity of herbicide alone ([2]; 100 g/ha): 60%
- Phytotoxicity of herbicide alone ([5]; 100 g/ha): 20%
- Phytotoxicity of herbicide alone ([3]; 1000 g/ha): 50%
- Phytotoxicity of herbicide alone ([4]; 100 g/ha): 85%
- Phytotoxicity of herbicide alone ([6]; 50 g/ha): 70%

Compound: CC(C)c1ccc(NC(=O)N(C)C)cc1 [Isoproturon, isoproturon]
- Phytotoxicity of herbicide alone ([1]; 1000 g/ha): 0%
- Phytotoxicity of herbicide alone (Avena fatua (wild oats); 1000 g/ha): 0%
- Phytotoxicity of herbicide alone ([2]; 500 g/ha): 0%
- Phytotoxicity of herbicide alone ([3]; 500 g/ha): 25%
- Phytotoxicity of herbicide alone ([4]; 500 g/ha): 0%
- Phytotoxicity of herbicide alone ([6]; 500 g/ha): 0%

Compound: CCC(CC)Nc1c([N+](=O)[O-])cc(C)c(C)c1[N+](=O)[O-] [Pendimethalin, pendimethalin]
- Phytotoxicity of herbicide alone ([1]; 800 g/ha): 10%
- Phytotoxicity of herbicide alone (Avena fatua (wild oats); 1200 g/ha): 0%
- Phytotoxicity of herbicide alone ([2]; 800 g/ha): 0%
- Phytotoxicity of herbicide alone ([5]; 800 g/ha): 50%
- Phytotoxicity of herbicide alone ([3]; 400 g/ha): 70%
- Phytotoxicity of herbicide alone ([4]; 1200 g/ha): 90%
- Phytotoxicity of herbicide alone ([6]; 1200 g/ha): 60%

Compound: CCS(=O)(=O)c1nc2ccccn2c1S(=O)(=O)NC(=O)Nc1nc(OC)cc(OC)n1 [SU - A]
- Phytotoxicity of herbicide alone ([1]; 10 g/ha): 10% and 0%
- Phytotoxicity of herbicide alone ([1]; 20 g/ha): 0%
- Phytotoxicity of herbicide alone (Avena fatua (wild oats); 10 g/ha): 0%
- Phytotoxicity of herbicide alone (Avena fatua (wild oats); 30 g/ha): 0% and 10%
- Phytotoxicity of herbicide alone ([2]; 10 g/ha): 70% and 50%
- Phytotoxicity of herbicide alone ([2]; 20 g/ha): 60%
- Phytotoxicity of herbicide alone ([2]; 30 g/ha): 65% and 55%
- Phytotoxicity of herbicide alone ([5]; 10 g/ha): 70% and 40%
- Phytotoxicity of herbicide alone ([5]; 20 g/ha): 90% and 45%
- Phytotoxicity of herbicide alone ([5]; 30 g/ha): 70%
- Phytotoxicity of herbicide alone ([4]; 10 g/ha): 30% and 20%
- Phytotoxicity of herbicide alone ([4]; 20 g/ha): 70% and 50%
- Phytotoxicity of herbicide alone ([6]; 20 g/ha): 60%

Compound: CCS(=O)(=O)c1nc2sccn2c1S(=O)(=O)NC(=O)Nc1nc(OC)cc(OC)n1 [SU - B]
- Phytotoxicity of herbicide alone ([1]; 20 g/ha): 10%
- Phytotoxicity of herbicide alone ([1]; 30 g/ha): 20% and 40%
- Phytotoxicity of herbicide alone (Avena fatua (wild oats); 20 g/ha): 0% and 5%
- Phytotoxicity of herbicide alone (Avena fatua (wild oats); 30 g/ha): 0%
- Phytotoxicity of herbicide alone ([2]; 20 g/ha): 20%
- Phytotoxicity of herbicide alone ([2]; 30 g/ha): 30%
- Phytotoxicity of herbicide alone ([5]; 20 g/ha): 60%
- Phytotoxicity of herbicide alone ([5]; 30 g/ha): 90%
- Phytotoxicity of herbicide alone ([3]; 10 g/ha): 0%
- Phytotoxicity of herbicide alone ([4]; 20 g/ha): 50%
- Phytotoxicity of herbicide alone ([6]; 20 g/ha): 80%

Compound: CC(C)N(C(=O)SCC(Cl)=C(Cl)Cl)C(C)C [Triallate, triallate]
- Phytotoxicity of herbicide alone ([1]; 1500 g/ha): 50%
- Phytotoxicity of herbicide alone (Avena fatua (wild oats); 1500 g/ha): 65%
- Phytotoxicity of herbicide alone ([2]; 1000 g/ha): 10%
- Phytotoxicity of herbicide alone ([5]; 1500 g/ha): 10%
- Phytotoxicity of herbicide alone ([3]; 1500 g/ha): 50%
- Phytotoxicity of herbicide alone ([4]; 500 g/ha): 40%

Compound: CCOC(=O)[C@@H](C)Oc1ccc(Oc2nc3ccc(Cl)cc3o2)cc1 [fenoxaprop-P-ethyl]
- Synergistic effect on the weeds (observed higher than expected) (weeds): synergized

Compound: imazamethabenz-methyl
- Phytotoxicity of herbicide alone ([1]; 300 g/ha): 15%
- Phytotoxicity of herbicide alone (Avena fatua (wild oats); 100 g/ha): 30%
- Phytotoxicity of herbicide alone ([2]; 100 g/ha): 10%
- Phytotoxicity of herbicide alone ([5]; 300 g/ha): 5%
- Phytotoxicity of herbicide alone ([3]; 300 g/ha): 60%
- Phytotoxicity of herbicide alone ([4]; 200 g/ha): 0%
- Phytotoxicity of herbicide alone ([4]; 300 g/ha): 10%
